Source: patent US10342795B2, “Substituted 4,5,6,7-tetrahydro-pyrazolo[1,5-a]pyrimidine derivatives and 2,3-dihydro-1H-imidazo[1,2-b]pyrazole derivatives as ROS1 inhibitors” (Janssen Pharmaceutica NV, priority 2014, dated 2019)

Molecular target: T1, Ros1 enzyme (Homo sapiens, UniProt P08922)
T1 construct: 0.5 μg/ml Ros1 enzyme
T1 sequence (P08922 28-2347): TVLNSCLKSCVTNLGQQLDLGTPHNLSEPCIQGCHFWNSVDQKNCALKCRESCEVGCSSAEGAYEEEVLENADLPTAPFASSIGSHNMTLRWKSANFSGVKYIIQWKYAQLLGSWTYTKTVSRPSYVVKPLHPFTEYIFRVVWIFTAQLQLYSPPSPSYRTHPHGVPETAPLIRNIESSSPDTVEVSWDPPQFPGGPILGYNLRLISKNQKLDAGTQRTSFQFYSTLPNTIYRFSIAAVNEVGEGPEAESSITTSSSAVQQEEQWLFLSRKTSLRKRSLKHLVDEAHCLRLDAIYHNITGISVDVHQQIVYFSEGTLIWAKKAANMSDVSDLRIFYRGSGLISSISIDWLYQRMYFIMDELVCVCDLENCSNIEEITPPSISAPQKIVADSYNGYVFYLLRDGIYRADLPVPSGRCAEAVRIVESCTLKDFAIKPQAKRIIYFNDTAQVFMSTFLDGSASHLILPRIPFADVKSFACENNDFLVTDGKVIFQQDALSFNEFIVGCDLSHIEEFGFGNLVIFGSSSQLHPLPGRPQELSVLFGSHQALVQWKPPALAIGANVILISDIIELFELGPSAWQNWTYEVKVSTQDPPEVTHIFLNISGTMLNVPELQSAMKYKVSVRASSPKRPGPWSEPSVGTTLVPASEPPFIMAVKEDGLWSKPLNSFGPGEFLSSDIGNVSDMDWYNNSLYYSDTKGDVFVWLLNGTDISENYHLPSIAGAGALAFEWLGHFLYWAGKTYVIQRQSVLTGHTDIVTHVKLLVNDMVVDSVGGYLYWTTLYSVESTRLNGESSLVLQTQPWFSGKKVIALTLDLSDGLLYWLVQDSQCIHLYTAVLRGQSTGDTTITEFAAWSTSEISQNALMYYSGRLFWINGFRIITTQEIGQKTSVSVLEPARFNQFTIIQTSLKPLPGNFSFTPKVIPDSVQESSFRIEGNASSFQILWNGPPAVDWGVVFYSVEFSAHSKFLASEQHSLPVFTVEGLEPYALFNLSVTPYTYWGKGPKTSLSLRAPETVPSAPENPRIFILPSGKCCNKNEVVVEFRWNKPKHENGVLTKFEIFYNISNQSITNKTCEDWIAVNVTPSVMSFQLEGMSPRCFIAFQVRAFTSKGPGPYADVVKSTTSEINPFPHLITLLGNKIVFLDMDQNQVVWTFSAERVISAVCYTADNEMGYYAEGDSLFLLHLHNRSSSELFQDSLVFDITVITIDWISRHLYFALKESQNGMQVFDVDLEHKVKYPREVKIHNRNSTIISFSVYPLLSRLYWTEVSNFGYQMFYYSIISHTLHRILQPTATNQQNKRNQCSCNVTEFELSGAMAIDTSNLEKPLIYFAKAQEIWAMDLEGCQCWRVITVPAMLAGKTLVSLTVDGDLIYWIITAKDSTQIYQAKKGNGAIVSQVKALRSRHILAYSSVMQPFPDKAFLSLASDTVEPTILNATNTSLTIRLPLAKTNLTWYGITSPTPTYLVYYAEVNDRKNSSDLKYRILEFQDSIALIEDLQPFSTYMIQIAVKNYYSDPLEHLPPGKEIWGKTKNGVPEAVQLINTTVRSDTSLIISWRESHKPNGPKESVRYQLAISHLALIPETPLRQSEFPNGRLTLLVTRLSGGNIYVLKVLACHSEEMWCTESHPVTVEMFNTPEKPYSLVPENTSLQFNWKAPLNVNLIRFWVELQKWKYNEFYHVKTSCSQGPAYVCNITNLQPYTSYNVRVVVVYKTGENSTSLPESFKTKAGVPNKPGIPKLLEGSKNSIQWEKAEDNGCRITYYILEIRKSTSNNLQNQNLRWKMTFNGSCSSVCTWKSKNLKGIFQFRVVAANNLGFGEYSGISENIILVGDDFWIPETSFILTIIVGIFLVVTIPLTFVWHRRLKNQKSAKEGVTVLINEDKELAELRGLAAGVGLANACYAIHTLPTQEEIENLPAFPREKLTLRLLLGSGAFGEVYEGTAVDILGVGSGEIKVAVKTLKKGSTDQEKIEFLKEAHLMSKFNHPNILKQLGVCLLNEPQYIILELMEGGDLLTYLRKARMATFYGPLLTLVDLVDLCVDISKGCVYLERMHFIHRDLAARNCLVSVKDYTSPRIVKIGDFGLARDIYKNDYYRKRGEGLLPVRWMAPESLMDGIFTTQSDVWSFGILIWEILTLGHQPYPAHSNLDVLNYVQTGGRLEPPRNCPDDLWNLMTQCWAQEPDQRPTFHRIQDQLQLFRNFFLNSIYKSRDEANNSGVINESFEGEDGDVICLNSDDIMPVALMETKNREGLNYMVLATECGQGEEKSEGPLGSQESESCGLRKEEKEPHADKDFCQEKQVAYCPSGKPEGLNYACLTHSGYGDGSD
Experiment: Ros1 enzymatic assay
Assay type: biochemical
Conditions: -log IC50 (M); 20 μM ATP, 120 min at room temperature; read-out: ROS1 pIC50 (converted)
Method: Compounds were spotted onto white 384-well Proxiplate plus plates (Perkin Elmer) to which 5 μl of enzyme mix (0.5 μg/ml Ros1 enzyme, 50 mM Tris-HCl pH7.5, 1 mM EGTA, 10 mM MgCl2, 0.01% Tween-20) and 5 μl of substrate mix (6 μg/ml IRS-Tide [American Peptide Company], 20 μM ATP, 13.33 μCi/ml ATP (adenosine 5′-triphosphate) P^33, 50 mM Tris-HCl pH7.5, 1 mM EGTA (ethylene glycol-bis(2-aminoethylether)-N,N,N′,N′-tetraacetic acid), 10 mM MgCl2, 0.01% Tween-20) were added. After incubation for 120 minutes at room temperature, 10 μl of stop reaction buffer (5 mM EDTA, 50 μM ATP, 0.1% BSA (bovine serum albumin), 0.1% Triton X-100, 50 mM Tris-HCl pH7.5, 1 mM EGTA, 10 mM MgCl2, 0.01% Tween-20) containing 2 mg/ml streptavidin coupled polystyrene imaging beads (Amersham Biosciences) was added and incubated for 15 minutes at room temperature. Plates were centrifuged for 3 minutes at 1500 rpm and signals detected in a LEADseeker imaging system (GE).
With `CC(C)c1ccc(COc2ccc(-c3c(-c4ccncc4)nn4cccnc34)cc2)cc1` [Co. A] the IC50 was 7.94e-08 M.
In the case of `CC(C)c1ccc(COc2ccc(-c3c(-c4ccncc4)nn4cccnc34)c(F)c2)cc1` [Co. B], the IC50 is reported as 2.51e-08 M.
`Cc1ccn2nc(-c3ccncc3)c(-c3ccc(OCc4ccc(C(C)C)cc4)cc3F)c2n1` [Co. C] gave an IC50 of 3.16e-08 M.
`CC(C)c1ccc(COc2ccc(-c3c(-c4ccncc4)nn4ccc(=O)[nH]c34)cc2)cc1` [Co. E] showed an IC50 of 6.31e-08 M.
Work on `COC(=O)c1ccn2nc(-c3ccncc3)c(-c3ccc(OCc4ccc(C(C)C)cc4)cc3)c2n1` [Co. G] yielded an IC50 of 1e-06 M.
In the case of `CCOC(=O)c1ccnc2c(-c3ccc(OCc4ccc(C(C)C)cc4)cc3)c(-c3ccncc3)nn12` [Co. H], the IC50 is reported as 5.01e-07 M.
Compound `CNC(=O)c1ccnc2c(-c3ccc(OCc4ccc(C(C)C)cc4)cc3)c(-c3ccncc3)nn12` [Co. J] has an IC50 of 5.01e-07 M.

Molecular target: Ba/F3 cells containing Ros1 wild-type protein (Homo sapiens, UniProt P08922, cells depend on it, form not given)
Sequence (P08922 whole entry, change not shown): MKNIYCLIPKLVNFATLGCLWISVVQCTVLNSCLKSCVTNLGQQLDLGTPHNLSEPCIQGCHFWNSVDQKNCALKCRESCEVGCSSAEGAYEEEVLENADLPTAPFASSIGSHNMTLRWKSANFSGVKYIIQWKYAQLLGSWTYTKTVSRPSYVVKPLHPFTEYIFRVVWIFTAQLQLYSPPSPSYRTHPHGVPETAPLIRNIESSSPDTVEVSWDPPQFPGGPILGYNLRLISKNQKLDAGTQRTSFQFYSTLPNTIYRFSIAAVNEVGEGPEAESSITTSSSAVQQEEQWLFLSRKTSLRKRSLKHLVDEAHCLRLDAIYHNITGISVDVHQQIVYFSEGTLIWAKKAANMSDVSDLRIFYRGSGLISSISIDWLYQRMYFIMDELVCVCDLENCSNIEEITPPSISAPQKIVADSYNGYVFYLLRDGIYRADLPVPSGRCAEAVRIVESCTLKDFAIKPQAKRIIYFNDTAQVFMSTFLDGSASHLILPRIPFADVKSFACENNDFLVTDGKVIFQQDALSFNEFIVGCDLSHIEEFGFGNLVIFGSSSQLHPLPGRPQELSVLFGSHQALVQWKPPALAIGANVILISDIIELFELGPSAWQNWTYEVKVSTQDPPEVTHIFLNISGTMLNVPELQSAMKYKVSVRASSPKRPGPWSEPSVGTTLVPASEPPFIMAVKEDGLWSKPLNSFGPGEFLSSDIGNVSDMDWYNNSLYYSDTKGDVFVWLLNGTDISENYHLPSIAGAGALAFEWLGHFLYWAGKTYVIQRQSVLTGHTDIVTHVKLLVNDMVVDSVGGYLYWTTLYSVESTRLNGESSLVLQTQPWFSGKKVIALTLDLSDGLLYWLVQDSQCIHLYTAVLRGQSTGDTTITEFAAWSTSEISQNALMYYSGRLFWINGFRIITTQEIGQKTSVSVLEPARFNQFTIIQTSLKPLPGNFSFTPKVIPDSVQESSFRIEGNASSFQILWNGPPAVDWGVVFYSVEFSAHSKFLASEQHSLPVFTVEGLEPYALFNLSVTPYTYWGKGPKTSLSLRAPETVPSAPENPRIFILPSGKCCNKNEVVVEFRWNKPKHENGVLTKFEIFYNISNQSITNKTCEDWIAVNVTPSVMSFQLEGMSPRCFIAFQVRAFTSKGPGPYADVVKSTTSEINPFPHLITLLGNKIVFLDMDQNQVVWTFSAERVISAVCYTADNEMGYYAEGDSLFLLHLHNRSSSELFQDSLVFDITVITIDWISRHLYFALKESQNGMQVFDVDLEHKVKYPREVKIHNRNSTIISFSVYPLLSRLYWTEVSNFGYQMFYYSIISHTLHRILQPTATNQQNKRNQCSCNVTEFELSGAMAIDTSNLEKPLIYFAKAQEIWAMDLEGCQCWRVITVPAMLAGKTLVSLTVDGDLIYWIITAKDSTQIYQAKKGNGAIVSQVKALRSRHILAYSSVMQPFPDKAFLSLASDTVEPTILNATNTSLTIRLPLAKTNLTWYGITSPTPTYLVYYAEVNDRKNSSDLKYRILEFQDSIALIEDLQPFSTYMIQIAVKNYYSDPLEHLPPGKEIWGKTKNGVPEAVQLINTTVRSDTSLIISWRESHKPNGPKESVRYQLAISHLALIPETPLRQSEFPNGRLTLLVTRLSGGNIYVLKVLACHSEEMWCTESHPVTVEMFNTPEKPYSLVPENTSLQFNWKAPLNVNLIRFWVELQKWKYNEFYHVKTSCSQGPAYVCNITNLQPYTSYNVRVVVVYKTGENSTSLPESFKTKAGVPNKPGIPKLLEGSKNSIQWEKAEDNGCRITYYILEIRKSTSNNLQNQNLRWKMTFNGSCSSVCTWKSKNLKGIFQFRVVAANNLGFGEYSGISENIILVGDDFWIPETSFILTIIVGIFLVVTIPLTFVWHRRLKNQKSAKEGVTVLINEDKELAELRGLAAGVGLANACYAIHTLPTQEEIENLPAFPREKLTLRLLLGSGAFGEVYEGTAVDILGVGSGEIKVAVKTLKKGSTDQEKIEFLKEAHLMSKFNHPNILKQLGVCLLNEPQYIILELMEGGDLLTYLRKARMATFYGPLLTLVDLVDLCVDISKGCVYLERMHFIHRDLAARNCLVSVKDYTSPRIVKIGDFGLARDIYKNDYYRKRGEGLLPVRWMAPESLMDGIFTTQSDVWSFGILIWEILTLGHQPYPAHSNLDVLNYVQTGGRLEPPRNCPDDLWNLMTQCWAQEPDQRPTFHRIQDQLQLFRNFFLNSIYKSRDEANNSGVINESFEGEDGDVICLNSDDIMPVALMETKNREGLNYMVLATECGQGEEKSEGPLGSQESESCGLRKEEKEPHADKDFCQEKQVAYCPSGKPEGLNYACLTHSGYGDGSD
Experiment: Ba/F3-Ros1 cell proliferation assay, wild-type Ros1, without IL-3
Assay type: cell-based, murine
Conditions: -log IC50 (M); wild-type Ros1, no IL-3, 24 h, Alamar Blue
Method: (§1) This assay was carried out with Ba/F3 cells containing three different versions of Ros1: the wild-type protein, protein with a mutation at the gatekeeper residue (L2026M), and protein with a mutation identified in a tumor from a patient that became resistant to crizotinib (Xalkori®) treatment (G2032R). Compounds were solubilized in 100% DMSO (dimethyl sulfoxide) and sprayed into polystyrene, tissue culture treated 384-well plates. A 50 μl volume of cell culture medium (phenol red free RPMI-1640, 10% FBS (fetal bovine serum), 2 mM L-Glutamine) containing 20000 Ba/F3-Ros1 cells was added to each well and the plates were placed in an incubator at 37° C. and 5% CO2. After 24 hours, 10 μl of Alamar Blue solution (0.5 mM K3Fe(CN)6, 0.5 mM K4Fe(CN)6, 0.15 mM Resazurin and 100 mM Phosphate Buffer) was added to the wells, incubated for 4 hours at 37° C. and 5% CO2 before RFU's (Relative Fluorescence Units) (ex. 540 nm., em. 590 nm.) were measured in a fluorescence plate reader.
For `CC(C)c1ccc(COc2ccc(-c3c(-c4ccncc4)nn4cccnc34)cc2)cc1` [Co. A], the “BaF3-ROS1 − IL3 pIC50” value was 6.8.
For `CC(C)c1ccc(COc2ccc(-c3c(-c4ccncc4)nn4cccnc34)c(F)c2)cc1` [Co. B], the “BaF3-ROS1 − IL3 pIC50” value was 7.2.
With `Cc1ccn2nc(-c3ccncc3)c(-c3ccc(OCc4ccc(C(C)C)cc4)cc3F)c2n1` [Co. C] the “BaF3-ROS1 − IL3 pIC50” value was 7.5.
In the case of `CC(C)c1ccc(COc2ccc(-c3c(-c4ccncc4)nn4ccc(=O)[nH]c34)cc2)cc1` [Co. E], the “BaF3-ROS1 − IL3 pIC50” value is reported as 7.1.
For `COC(=O)c1ccn2nc(-c3ccncc3)c(-c3ccc(OCc4ccc(C(C)C)cc4)cc3)c2n1` [Co. G], the “BaF3-ROS1 − IL3 pIC50” value was less than 5.
For `CCOC(=O)c1ccnc2c(-c3ccc(OCc4ccc(C(C)C)cc4)cc3)c(-c3ccncc3)nn12` [Co. H], the “BaF3-ROS1 − IL3 pIC50” value was 5.8.
With `CNC(=O)c1ccnc2c(-c3ccc(OCc4ccc(C(C)C)cc4)cc3)c(-c3ccncc3)nn12` [Co. J] the “BaF3-ROS1 − IL3 pIC50” value was 6.8.

Test system: Ba/F3 cells containing Ros1 wild-type protein + IL-3
Experiment: Ba/F3-Ros1 cell proliferation counter-screen, wild-type Ros1 in the presence of murine IL-3
Assay type: cell-based
Conditions: Mus musculus, BaF3, 24 h; -log IC50 (M); wild-type Ros1, 10 ng/ml murine IL-3 (counter-screen); read-out: BaF3-ROS1 + IL3 pIC50 (converted)
Method: as §1
As a counter-screen the same experiment was performed for the wild-type protein in the presence of 10 ng/ml murine IL-3.
`CC(C)c1ccc(COc2ccc(-c3c(-c4ccncc4)nn4cccnc34)cc2)cc1` [Co. A] gave a CC50 greater than 1e-05 M.
With `CC(C)c1ccc(COc2ccc(-c3c(-c4ccncc4)nn4cccnc34)c(F)c2)cc1` [Co. B] the CC50 was greater than 1e-05 M.
Work on `Cc1ccn2nc(-c3ccncc3)c(-c3ccc(OCc4ccc(C(C)C)cc4)cc3F)c2n1` [Co. C] yielded a CC50 greater than 1e-05 M.
For `CC(C)c1ccc(COc2ccc(-c3c(-c4ccncc4)nn4ccc(=O)[nH]c34)cc2)cc1` [Co. E], the CC50 was greater than 1e-05 M.
For `COC(=O)c1ccn2nc(-c3ccncc3)c(-c3ccc(OCc4ccc(C(C)C)cc4)cc3)c2n1` [Co. G], the CC50 was greater than 1e-05 M.
`CCOC(=O)c1ccnc2c(-c3ccc(OCc4ccc(C(C)C)cc4)cc3)c(-c3ccncc3)nn12` [Co. H] showed a CC50 greater than 1e-05 M.
`CNC(=O)c1ccnc2c(-c3ccc(OCc4ccc(C(C)C)cc4)cc3)c(-c3ccncc3)nn12` [Co. J] gave a CC50 greater than 1e-05 M.

Molecular target: Ba/F3 cells containing Ros1 L2026M (Homo sapiens, UniProt P08922, L2026M, cells depend on it, form not given)
Sequence (P08922 whole entry L2026M, form open): as the sequence (P08922 whole entry, change not shown) above, with L2026M counted along it
Experiment: Ba/F3-Ros1 cell proliferation assay, L2026M gatekeeper mutant
Assay type: cell-based, murine
Conditions: -log IC50 (M), no IL-3
Method: as §1
With `Cc1ccn2nc(-c3ccncc3)c(-c3ccc(OCc4ccc(C(C)C)cc4)cc3F)c2n1` [Co. C] the “Ba/F3 Ros1 L2026M (-IL-3) pIC50” value was 7.5.
With `CC(C)c1ccc(COc2ccc(-c3c(-c4ccncc4)nn4ccc(=O)[nH]c34)cc2)cc1` [Co. E] the “Ba/F3 Ros1 L2026M (-IL-3) pIC50” value was 6.9.
With `CNC(=O)c1ccnc2c(-c3ccc(OCc4ccc(C(C)C)cc4)cc3)c(-c3ccncc3)nn12` [Co. J] the “Ba/F3 Ros1 L2026M (-IL-3) pIC50” value was 6.8.

Test system: HCC78 non-small cell lung cancer cells
Experiment: HCC78 cell proliferation assay
Assay type: cell-based
Conditions: Homo sapiens, HCC78, 96 h; -log EC50 (M); 4 days, MTT; read-out: HCC-78 PROL pEC50 (converted)
Method: Approximately 1000 HCC78 non-small cell lung cancer cells in 180 μl of cell culture medium (RPMI-1640, 10% FBS, 2 mM L-Glutamine, 10 mM Hepes, 1 mM sodium pyruvate, 4.5 g/L glucose, 1.5 g/L sodium bicarbonate, 25 μg/ml Gentamycin) were seeded in each well of a 96-well polystyrene, tissue-culture treated plate and incubated at 37° C. and 5% CO2. After 24 hours, compounds were diluted in cell culture medium from which 20 μl was added to the wells containing cells and incubated for 4 days at 37° C. and 5% CO2. A 5 mg/ml solution of the tetrazolium dye MTT was prepared in PBS (phosphate-buffered saline) and 25 μl was added to each well. After 2 hours the medium was removed and replaced by 125 μL of 4/1 DMSO/glycine buffer (0.1M glycine, 0.1M NaCl, pH 10.5) before absorbance was determined at 538 nm.
Compound `Cc1ccn2nc(-c3ccncc3)c(-c3ccc(OCc4ccc(C(C)C)cc4)cc3F)c2n1` [Co. C] has an EC50 of 2e-07 M.
Compound `CC(C)c1ccc(COc2ccc(-c3c(-c4ccncc4)nn4ccc(=O)[nH]c34)cc2)cc1` [Co. E] has an EC50 of 5.01e-07 M.
Compound `CNC(=O)c1ccnc2c(-c3ccc(OCc4ccc(C(C)C)cc4)cc3)c(-c3ccncc3)nn12` [Co. J] has an EC50 of 2e-06 M.

Test system: not given
Experiment: not given
Conditions: not given
Work on `CC(C)c1ccc(COc2ccc(-c3c(-c4ccncc4)nn4cccnc34)c(F)c2)cc1` [Co. B] yielded a melting point of 187 °C.
Compound `CC(C)c1ccc(COc2ccc(-c3c(-c4ccncc4)nn4ccc(=O)[nH]c34)cc2)cc1` [Co. E] has a melting point of 243 °C.
Work on `CCOC(=O)c1ccnc2c(-c3ccc(OCc4ccc(C(C)C)cc4)cc3)c(-c3ccncc3)nn12` [Co. H] yielded a melting point of 140 °C.
Work on `CNC(=O)c1ccnc2c(-c3ccc(OCc4ccc(C(C)C)cc4)cc3)c(-c3ccncc3)nn12` [Co. J] yielded a melting point of 207 °C.
